Values of other authors as cited in US20060198888A1, “Tolperisone-containing pharmaceutical preparation with controllable active-substance release for oral administration” (Sanochemia Pharmazeutika AG, priority 2004, published 2006).
Like-named read-outs stand apart in the source and are kept apart here.

Tests used:
[1] = JP-A-53-40779
[2] = rat

fraction converted by in-vivo inversion into S(+) tolperisone [2] | extent of in-vivo inversion into R(−) tolperisone [2] | SMILES | pharmacological effect ([1]; listed as 1-tolperisone) | pharmacological effect ([1]; listed as d-tolperisone)
up to 20% | – | Cc1ccc(C(=O)C(C)CN2CCCCC2)cc1 (stereo not drawn) [R(−) tolperisone] | vaso- or bronchodilatory effect | –
– | up to 20% | Cc1ccc(C(=O)C(C)CN2CCCCC2)cc1 (stereo not drawn) [S(+) tolperisone] | – | muscle-relaxing effect
